Data taken from patent publication US12358954B2, “Capsid-modified rAAV vector compositions and methods therefor” (priority 2012, dated 2025).
Peptide text beside a SMILES is read from it. * marks the point of attachment. Cbz = O=C(OCc1ccccc1)*

Columns and labels:
[1] = test system: monocyte-derived dendritic cells (moDCs); test: AAV2 vector transduction of monocyte-derived dendritic cells (moDCs); assay type: cell-based, human; conditions: 50 μM, WT scAAV2-EGFP, 48 hrs p.i.
Protocol: Cells and Antibodies. HEK293, HeLa and NIH3T3 cells were obtained from the American Type Culture Collection and maintained as monolayer cultures in DMEM (Invitrogen, Inc.) supplemented with 10% FBS (Sigma-Aldrich Co.) and antibiotics (Lonza, Inc.). Leukapheresis-derived peripheral blood mononuclear cells (PBMCs) (AllCells) were purified on Ficoll-Paque (GEHeathCare), resuspended in serum-free AIM-V medium (Lonza, Inc.), and semi-adherent cell fractions were incubated for 7 days with recombinant human IL-4 (500 U/mL) and GM-CSF (800 U/mL) (R&D Systems). Cell maturation was initiated with a cytokine mixture including 10 ng/mL TNF-α, 10 ng/mL IL-1, 10 ng/mL IL-6, and 1 mg/mL PGE2 (R&D Systems) for 48 hrs. Prior to EGFP expression cells were characterized for co-stimulatory molecules expression to ensure that they met the typical phenotype of mature dendritic cells (mDC) (CD80, RPE, murine IgG1; CD83, RPE, murine IgG1; CD86, FITC, murine IgG1; Invitrogen, Inc.). (Jayandharan et al., 2011)
Recombinant AAV Vector Transduction Assays In Vitro. […] Transgene expression was assessed as the total area of green fluorescence (pixel2) per visual field (mean±SD) as described previously (Markusic et al., 2011; Jayandharan et al., 2011). Analysis of variance was used to compare test results and the control, which were determined to be statistically significant.

HeLa cells [2] = test: Recombinant AAV2 vector transduction assay in vitro (EGFP imaging); assay type: cell-based, human
Protocol: Recombinant AAV2 Vector Transduction Assays in Vitro. Approximately 1×10^5 HeLa cells were used for transductions with recombinant AAV2 vectors. The transduction efficiency was measured 48-hr post-transduction by EGFP imaging using fluorescence microscopy. Images from three to five visual fields were analyzed quantitatively by ImageJ analysis software (NIH, Bethesda, Md., USA). Transgene expression was assessed as total area of green fluorescence (pixel^2) per visual field (mean±SD). Analysis of variance (ANOVA) was used to compare between test results and the control and they were determined to be statistically significant.
The transduction efficiency of each of the tyrosine-mutant vectors was analyzed and compared with the WT scAAV2-EGFP vector in HeLa cells in vitro under identical conditions. […] Specifically, the transduction efficiency of Y444F, Y500F, Y730F vectors was ˜8- to 11-fold higher than the WT vector.
In a second study, HeLa cells, either mock-treated or treated with Tyr23, a specific inhibitor of EGFR-PTK, or MG132, a proteasome inhibitor, both known to increase the transduction efficiency of AAV vectors, were mock-infected or infected with the WT or Y730F scAAV2-EGFP vectors.

Huh7 cells = test: AAV3 vector transduction assay in Huh7 cells; assay type: cell-based, human; conditions: increasing concentrations, 2 hr
Protocol: (§1) AAV Vector Transduction Assays. Huh7 or HeLa cells were seeded in 96-well plates at a concentration of 5,000 cells per well in complete DMEM medium. AAV infections were performed in serum- and antibiotic-free DMEM medium. Hep293TT cells were seeded in 96-well plates at a concentration of 10,000 cells per well in complete RPMI medium. The infections were performed in serum- and antibiotic-free RPMI medium. The expression of EGFP was analyzed by direct fluorescence imaging 72 hrs' post-transduction.

Hep293TT cells = test: AAV3 vector transduction assay in Hep293TT cells; assay type: cell-based, human
Protocol: as §1

HeLa cells [3] = test: scAAV2 transduction of HeLa cells with MG132 or Tyr23 (positive control); assay type: cell-based, human; conditions: MG132 5 μM; Tyr23 200 μM
Protocol: as §1
Proteasome Inhibitors Increase the Transduction Efficiency of AAV3 Vectors. […] To evaluate whether MG132 can also improve AAV3 trafficking in target cells, Huh7, a well-established human hepatocellular carcinoma cell line (Nakabayashi et al., 1982), and Hep293TT, a recently established human hepatoblastoma cell line (Chen et al., 2009), were either mock-treated or treated with increasing concentrations of MG132. […] Transgene expression was determined by fluorescence microscopy 72 hrs post-transduction.
Previous studies have also shown that inhibition of EGFR-PTK signaling by Tyrphostin 23 (Tyr23), a specific inhibitor of EGFR-PTK (May et al., 1998), modulates the Ub/proteasome pathway, which in turn, facilitates intracellular trafficking and transgene expression mediated by AAV2 vectors (Zhong et al., 2007). […] Transgene expression was determined 72 hr post-transduction.

HEK293 cells = test: AAV2 vector transduction assay in HEK293 cells (serine mutants, kinase inhibitors); assay type: cell-based, human; conditions: 50 μM, 1 hr; 1,000 vgs per cell
Protocol: Recombinant AAV Vector Transduction Assays In Vitro. HEK293 or monocyte-derived dendritic cells (moDCs), were transduced with AAV2 vectors with 1,000 vgs/cell or 2,000 vgs/cell respectively, and incubated for 48 hr. Alternatively, cells were pretreated with 50 μM of selective serine/threonine kinase inhibitors 2-(2-hydroxyethylamino)-6-aminohexylcarbamic acid tert-butyl ester-9-isopropylpurine (for CaMK-II), anthra[1,9-cd]pyrazol-6(2H)-one, 1,9-pyrazoloanthrone (for JNK), and 4-(4-fluorophenyl)-2-(4-methylsulfinylphenyl)-5-(4-pyridyl)1H-imidazole (for MAPK) (CK59, JNK inhibitor 2, PD 98059, Calbiochem), 1 hr before transduction. Transgene expression was assessed as the total area of green fluorescence (pixel2) per visual field (mean±SD) as described previously (Markusic et al., 2011; Jayandharan et al., 2011). Analysis of variance was used to compare test results and the control, which were determined to be statistically significant.

human CD34+ cells = test: Ex vivo transduction of human CD34+ cells by AAV serotype and tyrosine-mutant AAV6 vectors; assay type: cell-based
Protocol: Human bone marrow CD34^+ and umbilical cord blood CD34^+ cells either were purchased from All-Cells (Berkeley, Calif., USA), or were obtained under an institutional review board-approved protocol, and maintained in either StemSpan SFEM medium ([…] Technologies, Inc, Vancouver, BC, CANADA) or IMDM with 10 ng/mL rhIL6 (PeproTech), 10 ng/mL rhIL3 (PeproTech, Rocky Hill, N.J., USA) and 1 ng/mL rhSCF (R&D Systems, Minneapolis, Minn., USA). CD34^+ cell purity was determined by flow cytometry and was >90%. Mouse HSCs, which were positive for Sca-1 and c-kit and negative for lineage markers (c-kit^+, Sca-1^+, lin^−), were isolated from 4-month-old male C57BL/6 mice as previously reported with slight modification. Briefly, femurs and tibias were obtained from C57BL/6 mice, and bone marrow cells were flushed from the bones with phosphate-buffered saline (PBS). […] APC-conjugated CD117 (c-kit) antibody and Alexa Fluor 700 conjugated Sca-1 antibody (Miltenyi Biotec Inc) were used during fluorescence-activated cell sorting (FACS). […]
Ex vivo transduction of HSCs. […] Mock-infected or infected cells were infused into recipient mice immediately after infection, or examined for transgene expression by fluorescence microscopy or by flow cytometry (Accuri C6; BD Biosciences) 48-72 hrs after infection.

O=C1c2ccccc2-c2n[nH]c3cccc1c23 [JNK inhibitor, anthra[1,9-cd]pyrazol-6(2H)-one, 1,9-pyrazoloanthrone]
increase of EGFP expression levels by inhibitor pre-treatment [1]: ~2 fold

CC(C)C[C@@H](C=O)NC(=O)[C@H](CC(C)C)NC(=O)[C@H](CC(C)C)NC(=O)OCc1ccccc1 [MG132] (Cbz-Leu-Leu-Leu-aldehyde)
increase in transduction efficiency of WT scAAV2-EGFP by pretreatment (HeLa cells [2]): ~6 fold | transduction efficiency of scAAV3 vectors after treatment (Huh7 cells): dose-dependent increase | amounts of internalized viral DNA in presence or absence of inhibitor (Hep293TT cells): no significant difference | transduction efficiency of scAAV3 vectors after treatment (Hep293TT cells; 2 hr treatment): dose-dependent increase | transduction efficiency of scAAV2 vectors after pretreatment (HeLa cells [3]): significantly increased

C[S+]([O-])c1ccc(-c2nc(-c3ccc(F)cc3)c(-c3ccncc3)[nH]2)cc1 (centres unmarked) [p38 MAPK inhibitor, 4-(4-fluorophenyl)-2-(4-methylsulfinylphenyl)-5-(4-pyridyl)1H-imidazole]
transduction efficiency of ssAAV2 and scAAV2 vectors after inhibitor pre-treatment (HEK293 cells): most effective

epidermal growth factor: epidermal growth factor
effect on transduction efficiency of AAV6 vectors in CD34+ cells (human CD34+ cells): no effect
